In PMC5719400, “Engineering an aldehyde dehydrogenase toward its substrates, 3-hydroxypropanal and NAD^+, for enhancing the production of 3-hydroxypropionic acid” (Scientific Reports, 2017):

Target: T1, KGSADH (α-ketoglutaric semialdehyde dehydrogenase) (Azospirillum brasilense, UniProt Q1JUP4)
T1 construct: gene araE; N-terminal His6-tag (pQE80L), expressed in E. coli DH10β, Ni-NTA purified; catalytic residues E253 and C287
Experiment: product inhibition, A340 activity assay
Assay type: biochemical
Settings: 2 mM NAD+, 100 mM phosphate pH 8

T1 sequence (Q1JUP4 2-481): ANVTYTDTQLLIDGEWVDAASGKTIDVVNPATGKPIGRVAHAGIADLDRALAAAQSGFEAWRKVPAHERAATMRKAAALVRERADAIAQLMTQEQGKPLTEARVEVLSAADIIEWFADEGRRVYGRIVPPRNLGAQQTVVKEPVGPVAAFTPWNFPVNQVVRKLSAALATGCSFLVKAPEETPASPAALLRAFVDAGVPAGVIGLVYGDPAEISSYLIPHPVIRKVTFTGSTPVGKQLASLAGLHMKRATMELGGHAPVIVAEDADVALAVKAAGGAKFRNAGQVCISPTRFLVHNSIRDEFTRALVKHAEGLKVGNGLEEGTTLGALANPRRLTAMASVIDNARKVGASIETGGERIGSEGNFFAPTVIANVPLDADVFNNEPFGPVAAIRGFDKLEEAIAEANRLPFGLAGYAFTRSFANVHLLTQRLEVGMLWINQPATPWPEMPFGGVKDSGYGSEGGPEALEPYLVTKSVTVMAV

% decrease in activity at 1 M: ~ 40%
Compound: O=C(O)CCO [3-HP, 3-hydroxypropionic acid]
